From the supplement of paper PMC10307832

Tests used:
Assay in all cases: relative viability (nuclei count vs DMSO), 5 days (fraction); higher = more cells survive
[1] = system: IA-LM
Procedure, shortened: (§1)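 For relative viability, nuclei counts in treated wells were divided by those in vehicle wells. Lung cancer cell lines had been pin-tool dosed in 1536-well plates the day after seeding and cultured for 5 days, then fixed and stained in one step (final 0.05% Triton X-100, 1% formaldehyde, 1 ug/ml Hoechst) and imaged at 4×. Doses were one drug alone or a fixed anchor-drug dose plus five library-drug doses (not always all listed) in √10 steps, and values are duplicate-plate medians.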

[2] = system: Calu-6
Procedure, shortened: as §1

[3] = system: NCI-H520
Procedure, shortened: as §1

[4] = system: NCI-H727
Procedure, shortened: as §1

[5] = system: NCI-H1623
Procedure, shortened: as §1

[6] = system: NCI-H2170
Procedure, shortened: as §1

[7] = system: NCI-H2023
Procedure, shortened: as §1

[8] = system: A549
Procedure, shortened: as §1

[9] = system: NCI-H1299
Procedure, shortened: as §1

[10] = system: EBC-1
Procedure, shortened: as §1

[11] = system: NCI-H1703
Procedure, shortened: as §1

[12] = system: NCI-H1648
Procedure, shortened: as §1

CCNC(=O)c1noc(-c2cc(C(C)C)c(O)cc2O)c1-c1ccc(CN2CCOCC2)cc1 [Luminespib] + COc1cc2c(Oc3ccc(NC(=O)C4(C(=O)Nc5ccc(F)cc5)CC4)cc3F)ccnc2cc1OCCCN1CCOCC1 [Foretinib] (partner 0.25 µM)
relative viability ([1]; first compound 0.002 µM): 1.07
relative viability ([1]; first compound 0.006325 µM): 1.13
relative viability ([1]; first compound 0.02 µM): 1.23
relative viability ([1]; first compound 0.06325 µM): 0.0645
relative viability ([1]; first compound 0.2 µM): 0.0409
relative viability ([2]; first compound 0.002 µM): 0.888
relative viability ([2]; first compound 0.006325 µM): 0.889
relative viability ([2]; first compound 0.02 µM): 1.03
relative viability ([2]; first compound 0.06325 µM): 0.0858
relative viability ([2]; first compound 0.2 µM): 0.086
relative viability ([3]; first compound 0.002 µM): 1.09
relative viability ([3]; first compound 0.006325 µM): 0.659
relative viability ([3]; first compound 0.02 µM): 0.651
relative viability ([3]; first compound 0.06325 µM): 0.147
relative viability ([3]; first compound 0.2 µM): 0.162
relative viability ([4]; first compound 0.002 µM): 1.04
relative viability ([4]; first compound 0.006325 µM): 0.834
relative viability ([4]; first compound 0.02 µM): 0.669
relative viability ([4]; first compound 0.06325 µM): 0.219
relative viability ([4]; first compound 0.2 µM): 0.332
relative viability ([5]; first compound 0.002 µM): 0.885
relative viability ([5]; first compound 0.006325 µM): 0.783
relative viability ([5]; first compound 0.02 µM): 0.67
relative viability ([5]; first compound 0.06325 µM): 0.673
relative viability ([5]; first compound 0.2 µM): 0.375
relative viability ([6]; first compound 0.002 µM): 0.986
relative viability ([6]; first compound 0.006325 µM): 0.973
relative viability ([6]; first compound 0.02 µM): 0.806
relative viability ([6]; first compound 0.06325 µM): 0.72
relative viability ([6]; first compound 0.2 µM): 0.181
relative viability ([7]; first compound 0.002 µM): 0.739
relative viability ([7]; first compound 0.006325 µM): 0.884
relative viability ([7]; first compound 0.02 µM): 0.438
relative viability ([7]; first compound 0.06325 µM): 0.123
relative viability ([7]; first compound 0.2 µM): 0.0586
relative viability ([8]; first compound 0.002 µM): 1.04
relative viability ([8]; first compound 0.006325 µM): 0.842
relative viability ([8]; first compound 0.02 µM): 1.09
relative viability ([8]; first compound 0.06325 µM): 0.138
relative viability ([8]; first compound 0.2 µM): 0.0269
relative viability ([9]; first compound 0.002 µM): 1.08
relative viability ([9]; first compound 0.006325 µM): 0.989
relative viability ([9]; first compound 0.02 µM): 1.09
relative viability ([9]; first compound 0.06325 µM): 1.07
relative viability ([9]; first compound 0.2 µM): 0.191
relative viability ([10]; first compound 0.002 µM): 0.0894
relative viability ([10]; first compound 0.006325 µM): 0.116
relative viability ([10]; first compound 0.02 µM): 0.113
relative viability ([10]; first compound 0.06325 µM): 0.0992
relative viability ([10]; first compound 0.2 µM): 0.104
relative viability ([11]; first compound 0.002 µM): 0.332
relative viability ([11]; first compound 0.006325 µM): 0.348
relative viability ([11]; first compound 0.02 µM): 0.396
relative viability ([11]; first compound 0.06325 µM): 0.21
relative viability ([11]; first compound 0.2 µM): 0.222

CCNC(=O)c1noc(-c2cc(C(C)C)c(O)cc2O)c1-c1ccc(CN2CCOCC2)cc1 [Luminespib] + COc1cccc2cc(-c3nc([C@H]4CC[C@H](C(=O)O)CC4)n4ncnc(N)c34)[nH]c12 [OSI-027] (partner 0.5 µM)
relative viability ([3]; first compound 0.002 µM): 0.247
relative viability ([3]; first compound 0.006325 µM): 0.27
relative viability ([3]; first compound 0.02 µM): 0.231
relative viability ([3]; first compound 0.06325 µM): 0.159
relative viability ([3]; first compound 0.2 µM): 0.158
relative viability ([12]; first compound 0.006325 µM): 0.283
relative viability ([12]; first compound 0.02 µM): 0.289
relative viability ([12]; first compound 0.06325 µM): 0.366
relative viability ([12]; first compound 0.2 µM): 0.335
relative viability ([4]; first compound 0.002 µM): 0.72
relative viability ([4]; first compound 0.006325 µM): 0.549
relative viability ([4]; first compound 0.02 µM): 0.463
relative viability ([4]; first compound 0.06325 µM): 0.33
relative viability ([4]; first compound 0.2 µM): 0.23
relative viability ([5]; first compound 0.002 µM): 0.449
relative viability ([5]; first compound 0.006325 µM): 0.439
relative viability ([5]; first compound 0.02 µM): 0.415
relative viability ([5]; first compound 0.06325 µM): 0.343
relative viability ([5]; first compound 0.2 µM): 0.293
relative viability ([6]; first compound 0.002 µM): 0.739
relative viability ([6]; first compound 0.006325 µM): 0.698
relative viability ([6]; first compound 0.02 µM): 0.488
relative viability ([6]; first compound 0.06325 µM): 0.23
relative viability ([6]; first compound 0.2 µM): 0.173
relative viability ([7]; first compound 0.002 µM): 0.44
relative viability ([7]; first compound 0.006325 µM): 0.374
relative viability ([7]; first compound 0.02 µM): 0.131
relative viability ([7]; first compound 0.06325 µM): 0.0545
relative viability ([7]; first compound 0.2 µM): 0.0624
